From US20250161408A1, “PEPTIDIC INHIBITORS OF AMYLOID SELF- AND CROSS-ASSEMBLY” (TECHNISCHE UNIVERSITÄT MÜNCHEN, priority 2022, published 2025)
Entries after “also recorded” stand apart in the source; their conditions may differ. Non-standard residues stand in square brackets, D forms with d. Residues, ends and D or L forms follow the SMILES beside them. No end group written: not given here. NMeF = CN[C@@H](Cc1ccccc1)C(=O)O; NMeL = CN[C@@H](CC(C)C)C(=O)O; NMeV = CN[C@H](C(=O)O)C(C)C; Nle = CCCC[C@H](N)C(=O)O

Legend:
[1] = target: T1, IAPP (Homo sapiens, UniProt P10997); test: MTT reduction assay of IAPP-mediated cell damage in RIN5fm cells; type: cell-based; details: for Effect on formation of cytotoxic IAPP assemblies (MTT reduction): aged (24 h or 7 days) IAPP/peptide 1/2 solutions; for IC50: read-out: IC50 (±SD) of inhibitory effects of ACMs on IAPP-mediated cell damage
T1 construct: made in house; host or cells: chemical synthesis (Fmoc-SPPS), air-oxidised, RP-HPLC purified
T1 sequence (P10997 34-70 limits assumed): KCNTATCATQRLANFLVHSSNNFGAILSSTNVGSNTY
Experimental: Briefly, cells were cultivated and platted in 96-well plates. Aliquots of solutions used for the ThT binding assays (see “ThT binding assays”) were diluted with cell medium at the indicated incubation time points (24 h or 7 days) and added to the cells at the indicated final concentrations. Following incubation with the cells for ˜20 h (37° C., humidified atmosphere, 5% CO2) cell damage was assessed by measuring cellular MTI reduction. IC50 values were determined.

[2] = target: T2, Aβ42 (Homo sapiens, UniProt P05067); test: cell-based; details: read-out: IC50 (±SD) of inhibitory effects of ACMs on Aβ42-mediated cell damage
T2 construct: the 40(42)-residue peptide Aβ40(42); made in house; host or cells: chemical synthesis (Fmoc-SPPS), monomer isolated by SEC
Experimental: Following incubation with the cells for ˜20 h (37° C., humidified atmosphere, 5% CO2), cell damage was assessed by measuring cellular MTT reduction.
Solutions were aged for 1.5 h (37° C., shaking 500 rpm). Aliquots were diluted with cell medium, incubated with PC12 cells at the indicated final concentrations for ˜20 h and cellular MTT reduction was measured as above.

[3] = test system: Aβ42-mediated LTP impairment; test: Hippocampal long-term potentiation (LTP) measurements in murine hippocampal slices ex vivo; set-up: species or system mouse; details: Aβ42 oligomers 50 nM, 24 h aged, 30° C.; oligomers/ACM 1/10
Experimental: LTP measurements were performed. Briefly, sagittal hippocampal slices (350 μm) were obtained from C57BL/6N male mice (6-8 weeks) in ice-cold Ringer solution bubbled with a mixture of 95% O2 and 5% CO2 and according to protocols approved by the ethical committee on animal care and use of the government of Bavaria Germany. Extracellular recordings were performed using artificial cerebrospinal fluid (ACSF)-filled glass microelectrodes (2-3 MW) at RT. […] Field excitatory postsynaptic potentials (fEPSPs) were evoked in the hippocampal CA1 dendritic region via two independent inputs by stimulating the Schaffer collateral commissural pathway (Scep). For LTP induction, high-frequency stimulation (HFS; 100 Hz/100 pulses) conditioning pulses were delivered to the same Seep inputs. Both stimulating electrodes were used to utilize the input specificity of LTP, thus allowing for the measurement of an internal control within the same slice. […] Responses were measured for 60 min after HFS. […] Data analysis by 1-way ANOVA and Bonferroni's multiple comparison test.

[4] = test system: cultured murine BV2 microglia; test: Phagocytosis of Aβ42 species with or without ACM; type: cell-based, mouse; details: 1/1, co-incubation 2 h
Experimental: Briefly, BV2 cells were maintained in GlutaMAX-supplemented RPMI1640 medium containing 10% FBS and 1% penicillin/streptomycin on poly-L-ornithine-coated flasks. For the phagocytosis assay, BV2 cells were seeded into 24-well plates containing coverslips in serum-free RPMI1640-GlutaMAX and further incubated for 24 h (5% CO2, 37° C.) to reach 10000 cells/well. Primary BMDMs were obtained from bone-marrow monocytes isolated from wildtype C57BL/6 mice, plated in 24-well plates at a density of 10000cells/well, and differentiated with L929 cell-conditioned medium (RPMI1640, 10% FBS, 1% penicillin/streptomycin) for 7 days. Thereafter, cells were incubated with aged peptide solutions at 37° C. for 6 h. […]
Following incubation of the cells with the peptides, supernatants were removed and cells on the coverslips were washed 5 times with ice-cold 1×PBS, fixed with 4% paraformaldehyde, washed with 1×PBS, permeabilized with 0.2% Triton-X 100, and rinsed three times with cold 1×PBS. […] Images were acquired using a Leica DMi8 fluorescence microscope. The percentage of cells that had taken up peptides was calculated by dividing the number of BV2 cells or BMDMs that phagocytosed TAMRA-labeled peptide by the total cell count, multiplied by 100. Significance was analyzed by unpaired student's t-test.

[5] = target: T2, Aβ42; test: ThT binding assay of Aβ42 fibrillogenesis (self-assembly, seeding, cross-seeding); type: biochemical; details: Aβ42 5 μM, Aβ42/peptide 1/1
Experimental: Aβ42 fibrillogenesis-related studies. […] Peptide incubations were performed in the presence of ThT in 96-well black MTPs (FluoroNunc, Thermo Fisher Scientific). […] Values of seeds or buffer alone were subtracted from the data in self-/cross-seeding assays; all other data shown are raw data except for data in FIG. 27b which were normalized).
Incubations (37° C.) and determination of ThT fluorescence were performed as for all other Aβ42-related studies.

Molecule	Effect on formation of cytotoxic IAPP assemblies (MTT reduction) ([1]; RIN5fm cells)	IC50 [1] [nM]	IC50 [2] [nM]	Effect on LTP impairment mediated by preformed Aβ42 oligomers [3]	Effect of addition to TAMRA-oAβ42 on Aβ42 phagocytosis [4]	Effect of addition to preformed fIAPP on fIAPP cytotoxicity (MTT reduction) ([1]; RIN5fm cells, ACM 33 μM added to fIAPP […], 1 day, fIAPP 500 nM)	Effect on Aβ42 fibrillogenesis / amyloid self-assembly (ThT binding) [5]
CCCC[C@H](NC(=O)[C@H](CC(C)C)NC(=O)CNC(=O)[C@@H](NC(=O)[C@@H](NC(=O)[C@H](C)NC(=O)CNC(=O)[C@H](CCCCN)NC(=O)[C@H](CC(N)=O)NC(=O)[C@H](Cc1ccccc1)NC(=O)[C@H](Cc1ccccc1)NC(=O)[C@H](Cc1ccccc1)NC(=O)[C@H](CC(=O)O)NC(=O)[C@H](CCC(=O)O)NC(=O)[C@H](C)NC(=O)[C@H](Cc1ccccc1)NC(=O)[C@H](Cc1ccccc1)N(C)C(=O)[C@@H](NC(=O)[C@H](CC(C)C)N(C)C(=O)[C@H](CCCCN)NC(=O)[C@@H](N)CCC(N)=O)C(C)C)[C@@H](C)CC)[C@@H](C)CC)C(=O)N[C@H](C(=O)NCC(=O)NCC(=O)N[C@H](C(=O)N[C@H](C(=O)O)C(C)C)C(C)C)C(C)C [F3-LF] (H-QK[NMeL]V[NMeF]FAEDFFFNKGAIIGL[Nle]VGGVV-OH)	fully suppressed; also recorded: suppress formation of toxic IAPP assemblies	41.7	262	suppress LTP impairment mediated by preformed Aβ42 oligomers	–	–	–
CCCC[C@H](NC(=O)[C@H](CC(C)C)NC(=O)CNC(=O)[C@@H](NC(=O)[C@@H](NC(=O)[C@H](C)NC(=O)CNC(=O)[C@H](CCCCN)NC(=O)[C@H](CC(N)=O)NC(=O)[C@H](CC(C)C)NC(=O)[C@H](CC(C)C)NC(=O)[C@H](CC(C)C)NC(=O)[C@H](CC(=O)O)NC(=O)[C@H](CCC(=O)O)NC(=O)[C@H](C)NC(=O)[C@H](Cc1ccccc1)N(C)C(=O)[C@H](Cc1ccccc1)NC(=O)[C@H](C(C)C)N(C)C(=O)[C@H](CC(C)C)NC(=O)[C@H](CCCCN)NC(=O)[C@@H](N)CCC(N)=O)[C@@H](C)CC)[C@@H](C)CC)C(=O)N[C@H](C(=O)NCC(=O)NCC(=O)N[C@H](C(=O)N[C@H](C(=O)O)C(C)C)C(C)C)C(C)C [L3-VF] (H-QKL[NMeV]F[NMeF]AEDLLLNKGAIIGL[Nle]VGGVV-OH)	fully suppressed; also recorded: suppress formation of toxic IAPP assemblies	113	261	suppress LTP impairment mediated by preformed Aβ42 oligomers	increased Aβ42 phagocytosis	–	–
CCCC[C@H](NC(=O)[C@H](CC(C)C)NC(=O)CNC(=O)[C@@H](NC(=O)[C@@H](NC(=O)[C@H](C)NC(=O)CNC(=O)[C@H](CCCCN)NC(=O)[C@H](CC(N)=O)NC(=O)[C@H](Cc1ccccc1)NC(=O)[C@H](Cc1ccccc1)NC(=O)[C@H](Cc1ccccc1)NC(=O)[C@H](CC(=O)O)NC(=O)[C@H](CCC(=O)O)NC(=O)[C@H](C)NC(=O)[C@H](Cc1ccccc1)N(C)C(=O)[C@H](Cc1ccccc1)NC(=O)[C@H](C(C)C)N(C)C(=O)[C@H](CC(C)C)NC(=O)[C@H](CCCCN)NC(=O)[C@@H](N)CCC(N)=O)[C@@H](C)CC)[C@@H](C)CC)C(=O)N[C@H](C(=O)NCC(=O)NCC(=O)N[C@H](C(=O)N[C@H](C(=O)O)C(C)C)C(C)C)C(C)C [F3-VF] (H-QKL[NMeV]F[NMeF]AEDFFFNKGAIIGL[Nle]VGGVV-OH)	fully suppressed; also recorded: suppress formation of toxic IAPP assemblies	78.5	1030	–	–	does not affect fIAPP cytotoxicity	–
CCCC[C@H](NC(=O)[C@H](CC(=O)O)NC(=O)[C@H](CCC(=O)O)NC(=O)[C@H](C)NC(=O)[C@H](Cc1ccccc1)NC(=O)[C@H](Cc1ccccc1)N(C)C(=O)[C@@H](NC(=O)[C@H](CC(C)C)N(C)C(=O)[C@H](CCCCN)NC(=O)[C@@H](N)CCC(N)=O)C(C)C)C(=O)N[C@@H](CCCC)C(=O)N[C@@H](CCCC)C(=O)N[C@@H](CC(N)=O)C(=O)N[C@@H](CCCCN)C(=O)NCC(=O)N[C@@H](C)C(=O)N[C@H](C(=O)N[C@H](C(=O)NCC(=O)N[C@@H](CC(C)C)C(=O)N[C@@H](CCCC)C(=O)N[C@H](C(=O)NCC(=O)NCC(=O)N[C@H](C(=O)N[C@H](C(=O)O)C(C)C)C(C)C)C(C)C)[C@@H](C)CC)[C@@H](C)CC [Nle3-LF] (H-QK[NMeL]V[NMeF]FAED[Nle][Nle][Nle]NKGAIIGL[Nle]VGGVV-OH)	fully suppressed; also recorded: suppress formation of toxic IAPP assemblies	82.1	–	–	–	–	–
Nle3-LVFF: 4-fold N-methylated Nle3-VF analog; N-methylation of all four residues of segment LVFF (QK[NMeL][NMeV][NMeF][NMeF]AED[Nle][Nle][Nle]NKGAIIGL[Nle]VGGVV)	–	–	–	–	–	–	blocks amyloid self-assembly of Aβ42
CCCC[C@H](NC(=O)[C@H](CC(C)C)NC(=O)CNC(=O)[C@@H](NC(=O)[C@@H](NC(=O)[C@H](C)NC(=O)CNC(=O)[C@H](CCCCN)NC(=O)[C@H](CC(N)=O)NC(=O)[C@H](CC(C)C)NC(=O)[C@H](CC(C)C)NC(=O)[C@H](CC(C)C)NC(=O)[C@H](CC(=O)O)NC(=O)[C@H](CCC(=O)O)NC(=O)[C@H](C)NC(=O)[C@H](Cc1ccccc1)NC(=O)[C@H](Cc1ccccc1)N(C)C(=O)[C@@H](NC(=O)[C@H](CC(C)C)N(C)C(=O)[C@H](CCCCN)NC(=O)[C@@H](N)CCC(N)=O)C(C)C)[C@@H](C)CC)[C@@H](C)CC)C(=O)N[C@H](C(=O)NCC(=O)NCC(=O)N[C@H](C(=O)N[C@H](C(=O)O)C(C)C)C(C)C)C(C)C [L3-LF] (H-QK[NMeL]V[NMeF]FAEDLLLNKGAIIGL[Nle]VGGVV-OH)	fully suppressed; also recorded: suppress formation of toxic IAPP assemblies	133	–	–	–	–	–
